The text below walks through data of US7947695B2, “5-membered annelated heterocyclic pyrimidines as kinase inhibitors” (Janssen Pharmaceutica NV, priority 2005, dated 2011).

Structures are written as SMILES. Where only a bound is given, the exact number is not on record here.

Sequence of CDK4/cyclinD1 enzyme complex (P11802 whole entry): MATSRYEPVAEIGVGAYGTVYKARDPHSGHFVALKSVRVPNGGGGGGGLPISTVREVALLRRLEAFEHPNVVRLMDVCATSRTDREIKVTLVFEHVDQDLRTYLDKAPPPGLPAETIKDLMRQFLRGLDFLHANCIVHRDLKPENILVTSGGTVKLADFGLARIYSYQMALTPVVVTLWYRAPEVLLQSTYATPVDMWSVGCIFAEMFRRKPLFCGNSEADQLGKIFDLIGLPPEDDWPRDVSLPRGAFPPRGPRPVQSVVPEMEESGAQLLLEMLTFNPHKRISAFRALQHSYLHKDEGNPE
Sequence of CDK4/cyclinD1 enzyme complex (P24385 whole entry partner): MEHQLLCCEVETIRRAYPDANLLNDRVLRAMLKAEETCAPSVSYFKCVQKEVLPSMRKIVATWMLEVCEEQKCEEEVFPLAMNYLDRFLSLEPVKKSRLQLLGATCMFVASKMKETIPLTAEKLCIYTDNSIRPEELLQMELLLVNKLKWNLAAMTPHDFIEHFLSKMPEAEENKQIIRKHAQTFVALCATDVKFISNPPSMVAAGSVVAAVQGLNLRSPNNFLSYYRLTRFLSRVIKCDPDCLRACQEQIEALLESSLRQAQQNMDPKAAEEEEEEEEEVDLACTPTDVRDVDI
Sequence of CDK4/cyclinD1 (P11802 whole entry): as the sequence (P11802 whole entry) above
Sequence of CDK4/cyclinD1 (P24385 whole entry partner): as the sequence (P24385 whole entry partner) above
Sequence of AURORA B (Q96GD4 whole entry): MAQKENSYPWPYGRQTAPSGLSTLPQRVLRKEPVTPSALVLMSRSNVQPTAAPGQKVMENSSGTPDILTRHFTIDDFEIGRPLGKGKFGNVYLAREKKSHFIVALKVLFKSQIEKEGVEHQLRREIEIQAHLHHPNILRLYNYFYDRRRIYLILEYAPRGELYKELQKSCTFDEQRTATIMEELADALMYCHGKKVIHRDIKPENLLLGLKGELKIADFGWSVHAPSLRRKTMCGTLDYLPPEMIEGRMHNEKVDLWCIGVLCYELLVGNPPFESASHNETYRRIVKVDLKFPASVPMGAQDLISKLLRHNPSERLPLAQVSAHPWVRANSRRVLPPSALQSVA

The first assay addresses CDK4/cyclinD1 (Homo sapiens, UniProt P11802). The experiment in a line: In vitro filtration assay for CDK4 inhibitory activity (pRb phosphorylation, [33P]-ATP). The settings on record: GST-pRb substrate, 1 μM unlabeled ATP, 25° C. 45 minutes, read-out: cdk4 filter (pIC50) (converted). Format: biochemical. On the procedure:
Compounds of the present invention were tested in an in vitro filtration assay assessing CDK4 activity by means of its pRb-phosphorylation activity using [^33P]-ATP as phosphor donor. The radioactive phosphorylated pRb is then captured on filtermats and the incorporated [^33P] quantitated using a phosphorage storage screen.
The CDK4 kinase reaction is performed at 25° C. for 45 minutes in a 96-well microtiterplate. The 25 μl reaction volume contains 50 mM Hepes pH 7.5, 10 mM NaF, 10 mM MgCl2, 1 mM Na3VO4, 1 μM unlabeled ATP, 1 mM DTT, 0.5 μCi AT^33P, 0.76 μg/well GST-pRb, 50 ng CDK4/cyclinD1/well and 0.2% compound in 100% DMSO.
(§1) The reaction is stopped by adding 5 μl of a 3% phosphoric acid solution. 10 μl of the reaction mixture is then spotted onto a Filtermat P30 filter (Wallac) and washed 3 times for 5 min. in 75 mM phosphoric acid and 1 time for 5 min. in methanol prior to drying and quantification on the Typhoon (Amersham) using a phosphorage storage screen.
(§2) For each experiment, controls (containing enzyme (complex) and DMSO without compound), a blank incubation (containing DMSO but no enzyme (complex) or compound) and samples (containing enzyme (complex) and compound dissolved in DMSO) were run in parallel. All compounds tested were dissolved and eventually further diluted in DMSO. […] In each test, the blank value was subtracted from both the control and the sample values. The control sample represented maximal enzyme activity. For each sample, the amount of cpm was expressed as a percentage of the mean cpm value of the controls. When appropriate, IC50-values (concentration of the drug, needed to reduce the enzyme activity to 50% of the control) were computed using linear interpolation between the experimental points just above and below the 50% level. Herein the effects of test compounds are expressed as pIC50 (the negative log value of the IC50-value).
As to `OCCCC1CCN(c2ccc(Nc3ncc4cnn(C5CCCCC5)c4n3)cc2)CC1` [compound 10], the IC50 was 0.0794 µM.
As to `CN1CCN(c2ccc(Nc3ncc4cnn(C5CCCC5)c4n3)cc2)CC1` [compound 11], the IC50 was 0.0316 µM.
In the case of `c1cc(N2CCOCC2)ccc1Nc1ncc2cnn(C3CCCCC3)c2n1` [compound 12], the IC50 is 0.0398 µM.
The same measure, in the same setting: then `OCCCC1CCN(c2ccc(Nc3ncc4cnn(C5CCCC5)c4n3)cc2)CC1` [compound 13], with 0.0631 µM; and `CN1CCC(NCc2ccc(N(C(=O)OC(C)(C)C)c3ncc4cnn(C5CCOCC5)c4n3)cc2)CC1` [compound 72], with more than 10 µM; and `CN1CCC(NCc2ccc(Nc3ncc4cnn(C5CCOCC5)c4n3)cc2)CC1` [compound 73], with 0.631 µM.
As to `OCCN1CCC(NCc2ccc(Nc3ncc4cnn(C5CCCCC5)c4n3)cc2)CC1` [compound 75], the IC50 was 0.126 µM.
Consider `COCCCN1CCC(NCc2ccc(N(C(=O)OC(C)(C)C)c3ncc4cnn(C5CCCCC5)c4n3)cc2)CC1` [compound 76], for which the IC50 is more than 10 µM.
`COCCCN1CCC(NCc2ccc(Nc3ncc4cnn(C5CCCCC5)c4n3)cc2)CC1` [compound 77]: the IC50 was 0.0794 µM.
On to `O=c1[nH]c2cnc(Nc3ccc(N4CCOCC4)cc3)nc2n1C1CCCCC1` [compound 78], for which the IC50 is 1 µM.
For `CN1CCN(Cc2ccc(Nc3ncc4[nH]c(=O)n(C5CCCCC5)c4n3)cc2)CC1` [compound 79], the IC50 is 2 µM.
On to `CC(=O)N1CCN(c2ccc(Nc3ncc4[nH]c(=O)n(C5CCCCC5)c4n3)cc2)CC1` [compound 80], for which the IC50 is 3.98 µM.

The target in another assay is T1, AURORA A (Homo sapiens, UniProt O14965).
T1 sequence (O14965 1-403): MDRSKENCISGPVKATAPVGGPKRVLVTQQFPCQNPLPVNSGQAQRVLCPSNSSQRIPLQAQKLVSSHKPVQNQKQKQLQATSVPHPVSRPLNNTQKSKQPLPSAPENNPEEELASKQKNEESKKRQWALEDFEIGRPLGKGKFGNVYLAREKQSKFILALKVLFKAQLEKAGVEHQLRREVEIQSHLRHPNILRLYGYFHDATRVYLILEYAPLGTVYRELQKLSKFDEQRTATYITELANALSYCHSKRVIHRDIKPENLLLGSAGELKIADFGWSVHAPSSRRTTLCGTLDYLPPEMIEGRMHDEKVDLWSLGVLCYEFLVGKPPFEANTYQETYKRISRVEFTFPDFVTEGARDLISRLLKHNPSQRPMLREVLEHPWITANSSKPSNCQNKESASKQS
The experiment in a line: In vitro filtration assay for AURORA A inhibitory activity. The format is biochemical. The settings on record: Kemptide substrate, 1 μM unlabeled ATP, 25° C. 40 minutes, read-out: Aurora A see C.2 (pIC50) (converted). As to the method:
Compounds of the present invention were tested in an in vitro filtration assay assessing AURORA A activity by means of its substrate-phosphorylation activity using [^33P]-ATP as phosphor donor. The radioactive phosphorylated substrate is then captured on filtermats and the incorporated [^33P] quantitated using a phosphorage storage screen.
The Aurora-A kinase reaction is performed at 25° C. for 40 minutes in a 96-well microtiterplate. The 25 μl reaction volume contains 12 mM MOPS pH 7, 0.4 mM EDTA, 0.002% Brij35, 1% glycerol, 0.02% beta-mercapto-ethanol, 0.2 mg/ml BSA, 1 μM unlabeled ATP, […] [^33P]-ATP, 200 μM Kemptide, 3 ng Aurora A/well and 0.2% compound in 100% DMSO.
as §1, §2
In the case of `OCCCC1CCN(c2ccc(Nc3ncc4cnn(C5CCCCC5)c4n3)cc2)CC1` [compound 10], the IC50 is 0.0501 µM.
On to `CN1CCN(c2ccc(Nc3ncc4cnn(C5CCCC5)c4n3)cc2)CC1` [compound 11], for which the IC50 is 0.158 µM.
Same read-out and setting: the same measure for `c1cc(N2CCOCC2)ccc1Nc1ncc2cnn(C3CCCCC3)c2n1` [compound 12]: 0.0631 µM; for `OCCCC1CCN(c2ccc(Nc3ncc4cnn(C5CCCC5)c4n3)cc2)CC1` [compound 13]: 0.0501 µM; for `CN1CCC(NCc2ccc(N(C(=O)OC(C)(C)C)c3ncc4cnn(C5CCOCC5)c4n3)cc2)CC1` [compound 72]: more than 10 µM.
The same measure, in the same setting: the same measure for `CN1CCC(NCc2ccc(Nc3ncc4cnn(C5CCOCC5)c4n3)cc2)CC1` [compound 73]: more than 10 µM; for `OCCN1CCC(NCc2ccc(Nc3ncc4cnn(C5CCCCC5)c4n3)cc2)CC1` [compound 75]: 1.58 µM.
For `COCCCN1CCC(NCc2ccc(N(C(=O)OC(C)(C)C)c3ncc4cnn(C5CCCCC5)c4n3)cc2)CC1` [compound 76], the IC50 is more than 10 µM.
Turning to `COCCCN1CCC(NCc2ccc(Nc3ncc4cnn(C5CCCCC5)c4n3)cc2)CC1` [compound 77], the IC50 is more than 10 µM.
Take `CN1CCN(Cc2ccc(Nc3ncc4[nH]c(=O)n(C5CCCCC5)c4n3)cc2)CC1` [compound 79]: the IC50 is more than 10 µM.
The same measure, in the same setting: then `CC(=O)N1CCN(c2ccc(Nc3ncc4[nH]c(=O)n(C5CCCCC5)c4n3)cc2)CC1` [compound 80], with 2.51 µM.

The next assay concerns the target AURORA B (Homo sapiens, UniProt Q96GD4). The experiment in a line: In vitro filtration assay for AURORA B inhibitory activity. Conditions: peptide (C(LRRWSLG)×4), 1 μM unlabeled ATP, 25° C. 40 minutes, read-out: Aurora B see C.3 (pIC50) (converted). Format: biochemical. On the procedure: Compounds of the present invention were tested in an in vitro filtration assay assessing AURORA B activity by means of its substrate-phosphorylation activity using [^33P]-ATP as phosphor donor. The radioactive phosphorylated substrate is then captured on filtermats and the incorporated [^33P] quantitated using a phosphorage storage screen.
The Aurora-B kinase reaction is performed at 25° C. for 40 minutes in a 96-well microtiterplate. The 25 μl reaction volume contains 60 mM Hepes pH 7.5, 3 mM MgCl2, 3 mM MnCl2, 3 μM Na3VO4, 50 μg/ml PEG20000, 1 μM unlabeled ATP, 1 mM DTT, 0.2 μCi AT^33P, 0.25 μg/well peptide (C(LRRWSLG)×4),100 ng Aurora-B/well and 0.2% compound in 100% DMSO. The reaction is stopped by adding 5 μl of a 3% phosphoric acid solution. 10 μl of the reaction mixture is then spotted onto a Filtermat P30 filter (Wallac) and washed 3 times for 5 min. in 75 mM phosphoric acid and 1 time for 5 min. in methanol prior to drying and quantification on the Typhoon (Amersham) using a phosphorage storage screen.
as §2
As to `OCCCC1CCN(c2ccc(Nc3ncc4cnn(C5CCCCC5)c4n3)cc2)CC1` [compound 10], the IC50 was more than 10 µM.
Still for that read-out and setting: the same measure for `CN1CCN(c2ccc(Nc3ncc4cnn(C5CCCC5)c4n3)cc2)CC1` [compound 11]: 0.398 µM; for `c1cc(N2CCOCC2)ccc1Nc1ncc2cnn(C3CCCCC3)c2n1` [compound 12]: 0.251 µM.
As for `OCCCC1CCN(c2ccc(Nc3ncc4cnn(C5CCCC5)c4n3)cc2)CC1` [compound 13], the IC50 was more than 10 µM.
`CN1CCC(NCc2ccc(N(C(=O)OC(C)(C)C)c3ncc4cnn(C5CCOCC5)c4n3)cc2)CC1` [compound 72]: the IC50 is more than 10 µM.
Consider `CN1CCC(NCc2ccc(Nc3ncc4cnn(C5CCOCC5)c4n3)cc2)CC1` [compound 73], for which the IC50 was more than 10 µM.
On to `OCCN1CCC(NCc2ccc(Nc3ncc4cnn(C5CCCCC5)c4n3)cc2)CC1` [compound 75], for which the IC50 was 1.26 µM.
With `COCCCN1CCC(NCc2ccc(N(C(=O)OC(C)(C)C)c3ncc4cnn(C5CCCCC5)c4n3)cc2)CC1` [compound 76], the IC50 was more than 10 µM.
Still for that read-out and setting: the same measure for `COCCCN1CCC(NCc2ccc(Nc3ncc4cnn(C5CCCCC5)c4n3)cc2)CC1` [compound 77]: 2 µM; for `CN1CCN(Cc2ccc(Nc3ncc4[nH]c(=O)n(C5CCCCC5)c4n3)cc2)CC1` [compound 79]: more than 10 µM.
Turning to `CC(=O)N1CCN(c2ccc(Nc3ncc4[nH]c(=O)n(C5CCCCC5)c4n3)cc2)CC1` [compound 80], the IC50 was more than 10 µM.

Another assay concerns the target CDK4/cyclinD1 enzyme complex (Homo sapiens, UniProt P11802). The experiment in a line: In vitro scintillation proximity assay (SPA) for CDK4 inhibitory activity. The format is biochemical. Conditions: GST-pRb substrate, 33P-ATP, 25° C. 30 minutes, read-out: cdk4 SPA see C.4 (pIC50) (converted). On the procedure: Compounds of the present invention were tested in an in vitro assay based on SPA technology.
In principle, the assay relies upon the well established SPA technology for the detection of CDK4 phosphorylated proteins, i.e pRb. This phosphorylation is performed using I0 CDK4/cyclinD1 enzyme complex and ^33P-ATP as phosphor donor.
The CDK4 SPA kinase reaction is performed at 25° C. for 30 minutes in a 96-well microtiter plate. The 100 μl reaction volume contains 40 mM Hepes, 6 mM NaF, 6 mM MgCl2, 0.6 mM Na3VO4, 2 μg/ml Pepstatin, 2 μg/ml Leupeptin, 2 μg/ml Aprotinin, 50 μg/ml TLCK, 150 μg/ml DTT, 0.3 μg/ml benzamide, 0.1 μCi ^33P-ATP, 1.7 μg GST-pRb, 50 ng CDK4/cyclinD1/well and 0.2% compound in 100% DMSO. The reaction is stopped by adding to each well 100 μl of the glutathione coated SPA beads (10 mg/ml in PBS+10 mM EDTA+100 μM ATP+0.05% Triton X 100). The plates are then shaked at 300 rpm for 30 min to allow binding of the GST-tagged substrate to the glutathione coated beads. The beads are allowed to settle at the bottom of the plate for 30 minutes. The microtiterplates are centrifuges at 800 rpm for 10 minutes and the amount of phosphorylated (^33P) substrate is determined by counting (30 sec/well) in a microtiterplate scintillation counter.
as §2
In general terms: SPA uses beads or plates that emit light when radiolabelled molecules are held near them.
Turning to `OCCCC1CCN(c2ccc(Nc3ncc4cnn(C5CCCCC5)c4n3)cc2)CC1` [compound 10], the IC50 was 0.0126 µM.
Still for that read-out and setting: the same measure for `CN1CCN(c2ccc(Nc3ncc4cnn(C5CCCC5)c4n3)cc2)CC1` [compound 11]: 0.00631 µM; for `c1cc(N2CCOCC2)ccc1Nc1ncc2cnn(C3CCCCC3)c2n1` [compound 12]: 0.02 µM.
For `OCCCC1CCN(c2ccc(Nc3ncc4cnn(C5CCCC5)c4n3)cc2)CC1` [compound 13], the IC50 is 0.0501 µM.
Take `O=c1[nH]c2cnc(Nc3ccc(N4CCOCC4)cc3)nc2n1C1CCCCC1` [compound 78]: the IC50 is 0.631 µM.
